Key:
SHPRH = biological target: T1, SHPRH (Homo sapiens, UniProt Q149N8); test: SHPRH stability and ubiquitination in SW480 cells (cycloheximide, MG132); assay type: cell-based; conditions: SW480, 5 μM
T1 construct: endogenous in cells; host or cells: SW480
From the text: 2D-DIGE images of the DARTS samples. […] Location of β-catenin binding motifs of indicated genes (left) and agarose gel analysis of ChIP-PCR reactions with indicated antibodies (right). d. Western blots of the CoIP samples of SW480 cells using indicated antibodies. e. […] WT, wild type; FL, full length. g. Overexpression of SHPRH in SW480 cells increases the ubiquitination level of β-catenin. h. […] Summary of the mechanisms by which axitinib blocks Wnt/β-catenin signaling.
Culture cells were lysed in RIPA buffer (50 mM Tris-HCl, pH 7.4, 150 mM NaCl, 1% NP-40, 0.5% sodium deoxycholate, 0.1% SDS, 1 mM EDTA) containing freshly added protease inhibitors (Roche, 11836153001). Protein lysates were resolved in Novex 10% BisTris MiniGels (Life technologies, NP0303BOX) and transferred onto PVDF membranes with Pierce 1-Step Transfer Buffer (Thermo Fisher Scientific, 84731). […] Proteins were visualized and captured by a ChemiDOC XRS system and Quantity One software (Bio-Rad Laboratories).
Cells were harvested and re-suspended with 100 μl ice cold TBS (50 mM Tris-HCL pH 8.0, 150 mM NaCl) containing 2 μM N-Ethylmaleimide crystalline that was supplemented to all the following buffers. […] Following addition of 80 μl 2% SDS sample buffer containing 10 mM DTT (Sigma, D9779), the beads were boiled at 98° C. for 5 minutes and collected with Magnet, the supernatant was analyzed by Western blotting.

GFP-SHPRH = biological target: T2, GFP-SHPRH (Homo sapiens, UniProt Q149N8); test: MST ligand-binding assay, GFP-SHPRH in SW480 cell lysates; conditions: 25° C., 4 replicates
T2 construct: expressed in transfected cells; host or cells: SW480
Method: Ten million SW480 cells overexpressing GFP-tagged SHPRH or free GFP were lysed in 1 mL radioimmunoprecipitation assay (RIPA) buffer. Cell lysates were diluted in buffer A [50 mM Hepes buffer (pH 7.5), 5 mM DTT, 10 mM CaCl2), 50 mM NaCl, and 0.05% Tween-20] to a final concentration at which the fluorescent signals of the GFP proteins were similar and well above the detection limit of the Monolith NT.115 instrument (NanoTemper Technologies GmbH). Ten microliters of each receptor were mixed with 10 μL of the ligand at various concentrations from 100 μM to 3.05 nM. Specifically, the ligand (4 mM in 100% DMSO) was diluted 1:20 to a final concentration of 200 μM in buffer A (giving 5% DMSO). Ten microliters of the 200 μM ligand solution was further serially diluted 1:1 in 10 μL of buffer A supplemented with 5% DMSO to make a 16-sample dilution series down to 6.1 nM. Ten microliters of the cell lysate were added to 10 μL of each ligand solution. […] The fluorescence signal during the thermophoresis was monitored for 30 s, and the change in fluorescence was analyzed as thermophoresis with T-jump. The Kd was calculated by fitting a standard binding curve to the average of four independent dilution series.

SW480 cells = test: Soft agar colony-formation assay, SW480; assay type: cell-based; conditions: 10 days
Method: The soft agar colony-formation assay was performed using the CellTransformation Assays kit (catalog no. CBA-130; Cell Biolabs, Inc.) according to the recommended protocol. […] Medium containing drugs was replaced every 3 d. For the clonogenic assay, positively transfected cells (wild-type and mutant GFP-SHPRH and control GFP) were enriched by FACS and were seeded in six-well plates at a density of 3,000 cells per well. Medium was changed every 3 d. On the last day colony growth was quantified by crystal violet staining and measurement of OD at 590 nm.

[1] = system: Wnt signals (TCF-GFP reporter); test: TCF-GFP expression assay in transgenic zebrafish embryos; assay type: in vivo; conditions: embryos treated for 2 days
Method: Transgenic zebrafish harboring Tcf/Lef-miniP:dGFP reporter (line isi04) was obtained from National BioResource Project Zebrafish, Japan. Fish were kept under standard conditions and treated humanely in accordance with approved Institutional Animal Care and Use Committee of University of Bergen. For embryo experiments, embryos at 6 hpf (hours post fertilization) were cultured in 6-well plates (20 embryos per well) at 28° C. Embryos were treated with indicated chemicals and water was replenished daily. […] For TCF-GFP expression assay, embryos at 3 dpf were examined under fluorescence microscope. In both assays embryos that died during treatment were excluded from assessment.

SW480-7TGC cells [2] = test: Wnt ACD assay; assay type: cell-based; conditions: 5 μM; never found in control cells
From the text: Unequal Wnt signaling was considered when paired cells had intensity ratio higher than 2.

Apc^min/+ mice = test: Apc min/+ mice study (intestinal adenomas, H&E and IHC); assay type: in vivo; conditions: 50 mg/kg daily for 5 weeks
From the text: C57BL/6-Apc^min/+ mice were obtained from the Model Animal Research Center of Nanjing University (Nanjing, China). Mice were housed and fed a standard rodent diet at the Animal Facility of the Second Military Medical University (Shanghai, China) in compliance with the institutional guidelines of the Animal Care and Use Committee. […] The mice were weighed weekly and monitored daily for any signs of illness. The mice were sacrificed at the last day of the treatment. The small intestines were dissected, washed in PBS, fixed in 4% PBS-buffered formaldehyde and embedded in paraffin using standard procedures.
H&E and IHC were performed according to the protocol previously described (Qu, Y. et al, supra). Primary antibodies used for IHC were β-catenin (ab16051, 1:1000, Abcam), Ki67 (ab16667, clone SP6, 1:100, Abcam) and BrdU (ab6326, clone BU1/75, 1:80, Abcam). Investigators were blinded when counting the intestinal adenomas and assessing the homeostasis of mice and fish intestine. Histologic images were captured using the Qcapture Suite software with a Qimaging Exi Blue camera attached to a Leica DMRBE microscope.

[3] = system: Apc (VilCre^ER Apc^fl/fl) intestinal organoids; test: Apc mutant intestinal organoid culture; assay type: cell-based, mouse; conditions: 7 days
From the text: Mouse intestinal Apc (VilCre^ER Apc^fl/fl) organoids were obtained from Owen J. Sansom's laboratory at the Beatson Institute for Cancer Research, Glasgow, UK. The culture protocol has been described previously (14). Briefly, Apc mutant organoids were suspended in Growth Factor Reduced Matrigel (catalog no. 356231; Corning) and cultured in Advanced DMEM/F12 (catalog no. 12634-028; Invitrogen) containing 1% B-27 supplement (50×), minus vitamin A (catalog no. 12587-010; Invitrogen) and 0.1% BSA. Organoids were seeded in 24-well plates at a density of 70-100 organoids/50 μL Matrigel in each well. […] One week later organoids were imaged using the Cytation 5 Cell Imaging Multi-Mode Reader (BioTek Instruments, Inc.).

SW480-7TGC cells [4] = test: Flow cytometry of SW480-7TGC cells with Hoechst33342; assay type: cell-based; conditions: 24 hours
Method: To establish stable cell lines containing Wnt reporters, lentiviral vector 7TGC or 7TC together with packaging plasmids pMD2.G and pCMVR8.74 were co-transfected into 293FT cells with lipofectamine 3000. After 16 hours, culture medium was replaced with medium for cells of interest. One day later, the culture medium was filtered through a 0.45 μm filter and incubated with cells for 24 hours. The transduced cells were assessed by fluorescence microscopy and fluorescence-activated cell sorting (FACS Aria, BD Biosciences).

T1 sequence (Q149N8 whole entry): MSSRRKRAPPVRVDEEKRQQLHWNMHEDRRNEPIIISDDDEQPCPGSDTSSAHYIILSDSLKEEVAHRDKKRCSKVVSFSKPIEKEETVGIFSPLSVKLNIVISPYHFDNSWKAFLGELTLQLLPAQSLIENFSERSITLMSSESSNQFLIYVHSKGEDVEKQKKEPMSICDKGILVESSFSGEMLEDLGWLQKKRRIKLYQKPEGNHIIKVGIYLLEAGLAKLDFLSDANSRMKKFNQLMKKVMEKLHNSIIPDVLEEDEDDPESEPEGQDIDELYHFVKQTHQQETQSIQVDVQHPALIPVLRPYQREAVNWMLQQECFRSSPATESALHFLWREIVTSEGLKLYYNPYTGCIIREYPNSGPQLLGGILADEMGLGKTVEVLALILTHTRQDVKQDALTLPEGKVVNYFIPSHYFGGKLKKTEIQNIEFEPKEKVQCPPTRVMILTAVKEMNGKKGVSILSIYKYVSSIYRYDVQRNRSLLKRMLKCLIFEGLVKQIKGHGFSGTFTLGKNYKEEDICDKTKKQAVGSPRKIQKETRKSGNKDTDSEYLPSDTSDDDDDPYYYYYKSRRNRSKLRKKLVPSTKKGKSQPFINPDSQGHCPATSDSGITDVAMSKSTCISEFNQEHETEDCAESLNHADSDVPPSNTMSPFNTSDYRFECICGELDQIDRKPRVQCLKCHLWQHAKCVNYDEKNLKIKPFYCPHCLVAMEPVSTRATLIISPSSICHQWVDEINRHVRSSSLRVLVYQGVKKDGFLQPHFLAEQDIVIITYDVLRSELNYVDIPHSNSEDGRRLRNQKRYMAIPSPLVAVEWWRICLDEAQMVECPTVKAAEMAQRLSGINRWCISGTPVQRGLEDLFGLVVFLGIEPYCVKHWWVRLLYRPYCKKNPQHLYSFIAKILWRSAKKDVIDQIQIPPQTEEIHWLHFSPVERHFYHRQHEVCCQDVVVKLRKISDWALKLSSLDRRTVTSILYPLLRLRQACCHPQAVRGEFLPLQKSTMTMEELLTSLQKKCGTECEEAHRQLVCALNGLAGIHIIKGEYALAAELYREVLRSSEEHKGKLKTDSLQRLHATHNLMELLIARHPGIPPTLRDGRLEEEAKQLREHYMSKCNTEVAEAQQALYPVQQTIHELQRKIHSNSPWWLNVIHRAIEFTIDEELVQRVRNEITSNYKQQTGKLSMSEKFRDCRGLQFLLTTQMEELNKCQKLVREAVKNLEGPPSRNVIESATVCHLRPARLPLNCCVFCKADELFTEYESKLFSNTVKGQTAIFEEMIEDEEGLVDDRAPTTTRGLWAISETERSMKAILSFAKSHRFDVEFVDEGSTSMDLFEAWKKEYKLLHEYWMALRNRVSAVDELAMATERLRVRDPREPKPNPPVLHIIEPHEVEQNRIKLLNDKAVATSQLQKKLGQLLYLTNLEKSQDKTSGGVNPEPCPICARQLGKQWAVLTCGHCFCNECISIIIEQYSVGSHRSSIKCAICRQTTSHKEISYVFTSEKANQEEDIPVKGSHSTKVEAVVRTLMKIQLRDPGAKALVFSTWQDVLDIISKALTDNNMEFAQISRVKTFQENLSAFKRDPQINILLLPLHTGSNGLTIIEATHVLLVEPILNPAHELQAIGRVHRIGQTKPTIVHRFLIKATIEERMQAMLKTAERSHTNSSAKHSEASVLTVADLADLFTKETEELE
T2 sequence (Q149N8 whole entry): as above

SMILES: CNC(=O)c1ccccc1Sc1ccc2c(/C=C/c3ccccn3)n[nH]c2c1 [axitinib, N-Methyl-2-[[3-[(E)-2-pyridin-2-ylethenyl]-1H-indazol-6-yl]sulfanyl]benzamide]
- stability of SHPRH (SHPRH; 6 hours, with cycloheximide): increased
- ubiquitination level of SHPRH (SHPRH; MG132, 6 hours): decreased
- Kd (GFP-SHPRH): 10.4 ± 3.3 µM
- colony growth (SW480 cells): strongly and dose-dependently inhibited
- TCF-GFP expression in the midbrain/hindbrain boundary and fin mesenchyme [1]: decreased
- paired cells with unequal TCF-GFP expression (Wnt ACD) (SW480-7TGC cells [2]): up to 10%
- normal-looking small intestine: mucosa organization, crypt density, distribution of Ki67 positive cells (Apc^min/+ mice): no obvious change
- nuclear β-catenin in adenomas (IHC) (Apc^min/+ mice): reduced nuclear β-catenin
- staining of the proliferation marker Ki67 in adenomas (Apc^min/+ mice): Obviously weaker staining
- numbers of multi-villus adenomas and microadenomas (Apc^min/+ mice; oral gavage): significantly decreased
- growth of Apc-deleted murine organoids [3]: strongly inhibited
- TCF-GFP^low cells (SW480-7TGC cells [4]): increased
- apoptosis in TCF-GFP^low cells (SW480-7TGC cells [4]; Hoechst33342): induced apoptosis

From patent publication US20180344715A1, “WNT/BETA-CATENIN SIGNAL TRANSDUCTION INHIBITORS AND THEIR USE IN TREATMENT OR PREVENTION OF DISEASES AND CONDITIONS LINKED WITH SAID TRANSDUCTION” (BERGEN TEKNOLOGIOVERFORING AS, priority 2015, published 2018)
